The data set addresses ATP-dependent translocase ABCB1 (Homo sapiens, UniProt P08183). The data set is described as follows: TP_TRANSPORTER: increase in Rhodamine 123 intracellular accumulation in MDR1 transfected L-5178 mouse T-cell lymphoma cells. The data set is classed as functional, cell-based.

Sequence of ATP-dependent translocase ABCB1 (P08183 whole entry): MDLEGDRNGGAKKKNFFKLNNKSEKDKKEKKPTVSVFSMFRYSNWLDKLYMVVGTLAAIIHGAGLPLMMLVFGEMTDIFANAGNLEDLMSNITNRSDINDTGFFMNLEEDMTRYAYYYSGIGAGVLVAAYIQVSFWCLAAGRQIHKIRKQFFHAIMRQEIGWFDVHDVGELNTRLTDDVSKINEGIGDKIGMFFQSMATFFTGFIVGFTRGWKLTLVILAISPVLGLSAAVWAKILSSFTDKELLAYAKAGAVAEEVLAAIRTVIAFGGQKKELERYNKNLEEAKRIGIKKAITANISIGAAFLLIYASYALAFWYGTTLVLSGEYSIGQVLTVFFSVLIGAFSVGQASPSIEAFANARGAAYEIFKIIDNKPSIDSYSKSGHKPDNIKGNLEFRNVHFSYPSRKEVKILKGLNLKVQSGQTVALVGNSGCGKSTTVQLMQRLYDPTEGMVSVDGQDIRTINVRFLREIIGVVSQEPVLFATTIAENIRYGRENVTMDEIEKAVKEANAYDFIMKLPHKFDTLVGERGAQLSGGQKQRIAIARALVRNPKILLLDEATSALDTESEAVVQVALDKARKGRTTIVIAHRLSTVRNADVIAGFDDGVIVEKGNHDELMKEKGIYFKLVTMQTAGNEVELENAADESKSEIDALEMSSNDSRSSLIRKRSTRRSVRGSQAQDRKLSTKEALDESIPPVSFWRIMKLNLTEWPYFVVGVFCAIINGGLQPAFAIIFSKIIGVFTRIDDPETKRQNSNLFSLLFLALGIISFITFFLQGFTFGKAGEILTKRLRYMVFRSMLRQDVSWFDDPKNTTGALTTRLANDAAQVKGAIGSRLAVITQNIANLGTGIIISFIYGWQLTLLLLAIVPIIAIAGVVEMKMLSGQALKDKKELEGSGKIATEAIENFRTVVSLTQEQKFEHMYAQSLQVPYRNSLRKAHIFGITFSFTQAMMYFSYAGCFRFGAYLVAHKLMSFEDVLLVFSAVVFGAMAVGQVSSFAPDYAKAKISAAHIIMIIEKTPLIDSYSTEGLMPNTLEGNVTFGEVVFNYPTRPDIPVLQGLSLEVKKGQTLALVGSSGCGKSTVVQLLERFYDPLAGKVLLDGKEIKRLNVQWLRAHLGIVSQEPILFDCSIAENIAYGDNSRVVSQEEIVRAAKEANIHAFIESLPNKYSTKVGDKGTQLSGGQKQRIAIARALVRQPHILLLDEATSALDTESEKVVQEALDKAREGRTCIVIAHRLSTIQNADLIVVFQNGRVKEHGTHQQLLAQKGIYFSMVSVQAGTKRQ

As for ANASTASIA RED EXTRACTS, the Activity result is “inhibitor [+]”.
